In US10828315B2 (Madrigal Pharmaceuticals, Inc., priority 2013, dated 2020):
“And” between values parts separate entries of the source, which are not always exact repeats. Equal entries are not always repeated. Where two headings read alike, the source gives them in different places.

Key:
[1] = mouse, plasma, 1 h
[2] = test system: HER2; experiment: HER2 degradation assay with BT-474 cell line (Example 12, FACS); type: cell-based, human
[3] = Mouse plasma stability protocol, up to 1 h (Examples 16-18)
[4] = Tissue Distribution Data for SDC-TRAP-0056
[5] = % Remaining of parent after 1 h incubation in mouse plasma at 37° C. (10 μM)

SMILES | % Remaining (1 h) ([1]; 10 µM) | IC50 [2] | % Remaining (1 h) [3, 5] | % Remaining (1 h, 37° C.) ([3]; mouse plasma, 37° C.) | also measured
CCc1c2c(nc3ccc(O)cc13)-c1cc3c(c(=O)n1C2)COC(=O)C3(CC)OC(=O)N(C)CCCCN1CCN(Cc2ccc(-n3c(O)nnc3-c3cc(C(C)C)c(O)cc3O)cc2)CC1 (centres unmarked) [SDC-TRAP-0055, 4,11-diethyl-9-hydroxy-3,14-dioxo-3,4,12,14-tetrahydro-1H-pyrano[3′,4′:6,7]indolizino[1,2-b]quinolin-4-yl (4-(4-(4-(3-(2,4-dihydroxy-5-isopropylphenyl)-5-hydroxy-4H-1,2,4-triazol-4-yl)benzyl)piperazin-1-yl)butyl)(methyl)carbamate] | 103% |  |  |  | % Remaining (1 h, 37° C.) ([1]; 10 µM): 103%
CCNC(=O)c1nnc(-c2cc(C(C)C)c(O)cc2O)n1-c1ccc(Oc2ccc(C(=O)NC(Cc3ccccc3)C(=O)Nc3cc(-c4cnoc4-c4cc(OC)c(OC)c(OC)c4)ccc3OC)cc2)cc1 (centres unmarked) [SDC-TRAP-0158] | 92.7% |  |  |  | 
CCNC(=O)c1nnc(-c2cc(C(C)C)c(O)cc2O)n1-c1ccc2c(c1)CN(C(=O)c1ccc(S(=O)(=O)Oc3ccc4nc5c(c(CC)c4c3)Cn3c-5cc4c(c3=O)COC(=O)C4(O)CC)cc1)C2 (centres unmarked) [SDC-TRAP-0393, 4,11-diethyl-4-hydroxy-3,14-dioxo-3,4,12,14-tetrahydro-1H-pyrano[3′,4′:6,7]indolizino[1,2-b]quinolin-9-yl 4-(5-(3-(2,4-dihydroxy-5-isopropylphenyl)-5-(ethylcarbamoyl)-4H-1,2,4-triazol-4-yl)isoindoline-2-carbonyl)benzenesulfonate] | 47.8% |  |  |  | 
CCNC(=O)c1nnc(-c2cc(C(C)C)c(O)cc2O)n1-c1ccc(CN2CCC(C(=O)N[C@H](C(=O)Nc3cccc4c3CN(C3CCC(=O)NC3=O)C4=O)C(C)C)CC2)cc1 (stereo partly drawn) [SDC-TRAP-0163, 1-(4-(3-(2,4-dihydroxy-5-isopropylphenyl)-5-(ethylcarbamoyl)-4H-1,2,4-triazol-4-yl)benzyl)-N-((2S)-1-((2-(2,6-dioxopiperidin-3-yl)-1-oxoisoindolin-4-yl)amino)-3-methyl-1-oxobutan-2-yl)piperidine-4-carboxamide] | 93.0% |  |  |  | 
CCNC(=O)c1nnc(-c2cc(C(C)C)c(O)cc2O)n1-c1ccc(CN2CCC(C(=O)N3CCC[C@H]3C(=O)Nc3cccc4c3CN(C3CCC(=O)NC3=O)C4=O)CC2)cc1 (stereo partly drawn) [SDC-TRAP-0164, 5-(2,4-dihydroxy-5-isopropylphenyl)-4-(4-((4-((2S)-2-((2-(2,6-dioxopiperidin-3-yl)-1-oxoisoindolin-4-yl)carbamoyl)pyrrolidine-1-carbonyl)piperidin-1-yl)methyl)phenyl)-N-ethyl-4H-1,2,4-triazole-3-carboxamide] | 98.0% |  |  |  | 
CCNC(=O)c1nnc(-c2cc(C(C)C)c(O)cc2O)n1-c1ccc(CN2CCC(C(=O)N3CCC(COC(=O)Nc4cccc5c4CN(C4CCC(=O)NC4=O)C5=O)CC3)CC2)cc1 (centres unmarked) [SDC-TRAP-0124, (1-(1-(4-(3-(2,4-Dihydroxy-5-isopropylphenyl)-5-(ethylcarbamoyl)-4H-1,2,4-triazol-4-yl)benzyl)piperidine-4-carbonyl)piperidin-4-yl)methyl (2-(2,6-dioxopiperidin-3-yl)-1-oxoisoindolin-4-yl)carbamate] | 112% |  |  |  | 
CCNC(=O)c1nnc(-c2cc(C(C)C)c(O)cc2O)n1-c1ccc(Oc2ccc(C(=O)N[C@@H](CC(C)C)C(=O)Nc3cccc4c3CN(C3CCC(=O)NC3=O)C4=O)cc2)cc1 (stereo partly drawn) [SDC-TRAP-0191, 5-(2,4-dihydroxy-5-isopropylphenyl)-4-(4-(4-(((2S)-1-((2-(2,6-dioxopiperidin-3-yl)-1-oxoisoindolin-4-yl)amino)-4-methyl-1-oxopentan-2-yl)carbamoyl)phenoxy)phenyl)-N-ethyl-4H-1,2,4-triazole-3-carboxamide] | 77.4% |  |  |  | 
CCNC(=O)c1nnc(-c2cc(C(C)C)c(O)cc2O)n1-c1ccc(CN2CCC(C(=O)N(C)CCCOC(=O)Nc3cccc4c3CN(C3CCC(=O)NC3=O)C4=O)CC2)cc1 (centres unmarked) [SDC-TRAP-0231, 3-(1-(4-(3-(2,4-dihydroxy-5-isopropylphenyl)-5-(ethylcarbamoyl)-4H-1,2,4-triazol-4-yl)benzyl)-N-methylpiperidine-4-carboxamido)propyl (2-(2,6-dioxopiperidin-3-yl)-1-oxoisoindolin-4-yl)carbamate] |  |  |  |  | % Remaining (1 h, 10 μM) ([1]; 10 μM): 98.3%
CC(C)c1cc(-c2nnc(O)n2-c2ccc(N3CCN(C(=O)c4ccc(COC(=O)Nc5cccc6c5CN(C5CCC(=O)NC5=O)C6=O)cc4)CC3)cc2)c(O)cc1O (centres unmarked) [SDC-TRAP-0156, 4-(4-(4-(3-(2,4-Dihydroxy-5-isopropylphenyl)-5-hydroxy-4H-1,2,4-triazol-4-yl)phenyl)piperazine-1-carbonyl)benzyl (2-(2,6-dioxopiperidin-3-yl)-1-oxoisoindolin-4-yl)carbamate] | 90.3% |  |  |  | 
CCc1c2c(nc3ccc(O)cc13)-c1cc3c(c(=O)n1C2)COC(=O)[C@@]3(CC)OC(=O)N1CCC(CCc2ccc(-n3c(O)nnc3-c3cc(C(C)C)c(O)cc3O)cc2)CC1 [SDC-TRAP-0104, (S)-4,11-diethyl-9-hydroxy-3,14-dioxo-3,4,12,14-tetrahydro-1H-pyrano[3′,4′:6,7]indolizino[1,2-b]quinolin-4-yl 4-(4-(3-(2,4-dihydroxy-5-isopropylphenyl)-5-hydroxy-4H-1,2,4-triazol-4-yl)phenethyl)piperidine-1-carboxylate] |  | 350 nM | 95.5% | 95.5% | 
CCc1c2c(nc3ccc(OC(=O)N(C)C4CCN(C(=O)CCn5ccc6cc(-n7c(O)nnc7-c7cc(C(C)C)c(O)cc7O)ccc65)CC4)cc13)-c1cc3c(c(=O)n1C2)COC(=O)C3(O)CC (centres unmarked) [SDC-TRAP-0184, 4,11-diethyl-4-hydroxy-3,14-dioxo-3,4,12,14-tetrahydro-1H-pyrano[3′,4′:6,7]indolizino[1,2-b]quinolin-9-yl (1-(3-(5-(3-(2,4-dihydroxy-5-isopropylphenyl)-5-hydroxy-4H-1,2,4-triazol-4-yl)-1H-indol-1-yl)propanoyl)piperidin-4-yl)(methyl)carbamate] |  | 4000 nM | 18.0% | 18.0% | % Remaining (1 h) ([3]; mouse plasma, 37° C., 10 μM): 18.0%
CCNC(=O)c1nnc(-c2cc(C(C)C)c(O)cc2O)n1-c1ccc(CN2CCC(C(=O)N3CCC(N(C)C(=O)Oc4ccc5nc6c(c(CC)c5c4)Cn4c-6cc5c(c4=O)COC(=O)C5(O)CC)CC3)CC2)cc1 (centres unmarked) [SDC-TRAP-0172, 4,11-diethyl-4-hydroxy-3,14-dioxo-3,4,12,14-tetrahydro-1H-pyrano[3′,4′:6,7]indolizino[1,2-b]quinolin-9-yl (1-(1-(4-(3-(2,4-dihydroxy-5-isopropylphenyl)-5-(ethylcarbamoyl)-4H-1,2,4-triazol-4-yl)benzyl)piperidine-4-carbonyl)piperidin-4-yl)(methyl) carbamate] |  | < 78 nM and 56 nM | 74.7% | 74.7% | % Remaining (1 h) ([3]; mouse plasma, 37° C., 10 μM): 74.7%
CCc1c2c(nc3ccc(O)cc13)-c1cc3c(c(=O)n1C2)COC(=O)C3(CC)OC(=O)CN1CCC(Cc2ccc(-n3c(O)nnc3-c3cc(C(C)C)c(O)cc3O)cc2)CC1 (centres unmarked) [SDC-TRAP-0071, 4,11-diethyl-9-hydroxy-3,14-dioxo-3,4,12,14-tetrahydro-1H-pyrano[3′,4′:6,7]indolizino[1,2-b]quinolin-4-yl 2-(4-(4-(3-(2,4-dihydroxy-5-isopropylphenyl)-5-hydroxy-4H-1,2,4-triazol-4-yl)benzyl)piperidin-1-yl)acetate] |  | 307 nM | 102% | 102% | 
CCNC(=O)c1nnc(-c2cc(C(C)C)c(O)cc2O)n1-c1ccc(OC2CCN(C(=O)Oc3c(C)cc(COC(=O)Nc4cccc5c4CN(C4CCC(=O)NC4=O)C5=O)cc3C)CC2)cc1 (centres unmarked) [SDC-TRAP-0187, 4-((((2-(2,6-dioxopiperidin-3-yl)-1-oxoisoindolin-4-yl)carbamoyl)oxy)methyl)-2,6-dimethylphenyl 4-(4-(3-(2,4-dihydroxy-5-isopropylphenyl)-5-(ethylcarbamoyl)-4H-1,2,4-triazol-4-yl)phenoxy)piperidine-1-carboxylate] |  | 72 nM | 102% |  | 
CCc1c2c(nc3ccc(O)cc13)-c1cc3c(c(=O)n1C2)COC(=O)C3(CC)OC(=O)CN1CCN(c2ccc(-n3c(O)nnc3-c3cc(C(C)C)c(O)cc3O)cc2)CC1 (centres unmarked) [SDC-TRAP-0056, 4,11-diethyl-9-hydroxy-3,14-dioxo-3,4,12,14-tetrahydro-1H-pyrano[3′,4′:6,7]indolizino[1,2-b]quinolin-4-yl 2-(4-(4-(3-(2,4-dihydroxy-5-isopropylphenyl)-5-hydroxy-4H-1,2,4-triazol-4-yl)phenyl)piperazin-1-yl)acetate] |  | 1270 nM | 78.4% | 78% | Plasma Conc. ([4]; Time (h) 0.083): 1220 µM; Tumor Conc. ([4]; Time (h) 0.083): 6.40 nmol/g of tissue; Tumor/Plasma Ratio ([4]; Time (h) 0.083): 0.00525; Plasma Conc. ([4]; Time (h) 6): 2.06 µM; Tumor Conc. ([4]; Time (h) 6): 2.65 nmol/g of tissue; Tumor/Plasma Ratio ([4]; Time (h) 6): 1.28; Plasma Conc. ([4]; Time (h) 12): 0.382 µM; Tumor Conc. ([4]; Time (h) 12): 0.746 nmol/g of tissue; Tumor/Plasma Ratio ([4]; Time (h) 12): 1.95; Plasma Conc. ([4]; Time (h) 24): 0.0343 µM; Tumor Conc. ([4]; Time (h) 24): BQL; Plasma Conc. ([4]; Time (h) 48): BQL; Tumor Conc. ([4]; Time (h) 48): BQL
CCc1c2c(nc3ccc(OC(=O)N4CCN(Cc5ccc(-n6c(O)nnc6-c6cc(C(C)C)c(O)cc6O)cc5)CC4C)cc13)-c1cc3c(c(=O)n1C2)COC(=O)C3(O)CC (centres unmarked) [SDC-TRAP-0220, 4,11-diethyl-4-hydroxy-3,14-dioxo-3,4,12,14-tetrahydro-1H-pyrano[3′,4′:6,7]indolizino[1,2-b]quinolin-9-yl 4-(4-(3-(2,4-dihydroxy-5-isopropylphenyl)-5-hydroxy-4H-1,2,4-triazol-4-yl)benzyl)-2-methylpiperazine-1-carboxylate] |  | 474 nM and 445 nM |  | 78.3% | 
